From patent US6974823B2, “Hydantoin derivative compounds, pharmaceutical compositions, and methods of using same” (GPI NIL Holdindgs, Inc., priority 1999, dated 2005)

Tests used:
[1] = system: dopaminergic neurons (MPTP lesioning); assay: MPTP model of Parkinson's Disease in mice, concurrent dosing paradigm; format: in vivo; conditions: male CD1 mice, anti-tyrosine hydroxylase immunostaining at 18 days; for % recovery of dopaminergic neurons at 10 mg/kg: po
Description: MPTP lesioning of dopaminergic neurons in mice was used as an animal model of Parkinson's Disease. Four week old male CD1 white mice were dosed i.p. with 30 mg/kg of MPTP for 5 days. Inventive compounds (4 mg/kg), or vehicle, were administered s.c. along with the MPTP for 5 days, as well as for an additional 5 days following cessation of MPTP treatment (Table IV). Inventive compounds (10 mg/kg), or vehicle, were also administered p.o. along with the MPTP for 5 days, as well as for an additional 5 days following cessation of MPTP treatment (Table V). At 18 days following MPTP treatment, the animals were sacrificed and the striata were dissected and homogenized. Immunostaining was performed on saggital and coronal brain sections using anti-tyrosine hydoxylase Ig to quantitate survival and recovery of dopaminergic neurons. In animals treated with MPTP and vehicle, a substantial loss of functional dopaminergic terminals was observed as compared to non-lesioned animals. In another protocol, test compounds were administered only subsequent to MPTP-induced lesioning. Thus, after animals were treated with MPTP for 5 days, an additional 3 days passed before beginning oral drug treatment on day 8. Animals were treated with inventive compounds (0.4 mg/kg), administered orally, once a day for 5 days total. On day 18, the animals were sacrificed and analyzed as described above. Tables IV and V present the percent recovery of dopaminergic neurons in the first (concurrent dosing) paradigms in animals receiving hydantoin derivative compounds.
Tables IV and V, below, show the remarkable neuroregenerative effects of the inventive hydantoin derivative compounds illustrating the neurotrophic capability of these compounds as a class showing that lesioned animals receiving the hydantoin derivative compounds provide a remarkable recovery of TH-stained dopaminergic neurons.

[2] = target: FKBP-12 peptidyl-prolyl isomerase (rotamase) (Homo sapiens, UniProt P62942); assay: Ki test procedure: inhibition of FKBP peptidyl-prolyl isomerase (rotamase) activity, chymotrypsin-coupled assay; format: biochemical; conditions: apparent Ki, substrate N-succinyl-Ala-Ala-Pro-Phe-p-nitroanilide
Chain of FKBP-12 peptidyl-prolyl isomerase (rotamase) (P62942 whole entry): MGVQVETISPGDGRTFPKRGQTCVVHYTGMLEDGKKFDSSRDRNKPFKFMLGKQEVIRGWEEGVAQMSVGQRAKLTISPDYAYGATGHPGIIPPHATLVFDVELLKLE
From the text: The binding to FBKP12 and inhibition of the peptidyl-prolyl isomerase (rotamase) activity of the compounds used in the inventive methods and pharmaceutical compositions can be evaluated by known methods described in the literature (Harding et al., Nature, 1989, 341:758-760; Holt et al. J. Am. Chem. Soc., 115:9923-9938). These values are obtained as apparent Ki's and are presented for representative compounds in TABLE III.
The cis-trans isomerization of an alanine-proline bond in a model substrate, N-succinyl-Ala-Ala-Pro-Phe-p-nitroanilide, is monitored spectrophotometrically in a chymotrypsin-coupled assay, which releases para-nitroanilide from the trans form of the substrate. The inhibition of this reaction caused by the addition of different concentrations of inhibitor is determined, and the data is analyzed as a change in first-order rate constant as a function of inhibitor concentration to yield the apparent K1 values. […]
The absorbance at 390 nm versus time is monitored for 90 seconds using a spectrophotometer and the rate constants are determined from the absorbance versus time data files.

[3] = Mus musculus, Neuron, 432 h, 10 mg/kg p.o. with MPTP (30 mg/kg i.p.) for 5 days plus 5 further days

Row | SMILES | % recovery of dopaminergic neurons at 10 mg/kg [1, 3] | also measured
1 | O=C1C2CCCN2C(=S)N1Cc1ccccc1 (stereo not shown) [Compound 4, 2-benzyl-3-thioxo-2,5,6,7,7a-pentahydro-2-azapyrrolizin-1-one] | 49.3% | 
2 | CCCCCCCCN1C(=O)C2CCCCN2C1=O (stereo not shown) [Compound 42, 2-Octyl-2,5,6,7,8,8a-hexahydro-2-azaindolizine-1,3-dione] | 17.4% | 
3 | O=C1C2CCCN2C(=S)N1CCCc1ccccc1 (stereo not shown) [Compound 7, 2-(3-phenylpropyl)-3-thioxo-2,5,6,7,7a-pentahydro-2-azapyrrolizin-1-one] | 37.5% | 
4 | O=C1C2CCCN2C(=S)N1CCc1ccccc1 (stereo not shown) [Compound 8, 2-(2-phenylethyl)-3-thioxo-2,5,6,7,7a-pentahydro-2-azapyrrolizin-1-one] | 42.5% | 
5 | O=C1[C@@H]2CCCN2C(=O)N1c1cccc2ccccc12 [Compound 1, (7aS)-2-(1-Naphthyl)perhydropyrrolo[1,2-c]imidazole-1,3-dione] |  | Ki [2]: > 10 µM; % recovery of dopaminergic neurons at 4 mg/kg ([1]; Mus musculus, Neuron, sc, 432 h, 4 mg/kg s.c. with MPTP (30 mg/kg i.p.) for 5 days plus 5 further days): 32.2%
6 | CCCCCCCN1C(=O)C2CCCCN2C1=O (stereo not shown) [Compound 41, 2-Heptyl-2,5,6,7,8,8a-hexahydro-2-azaindolizine-1,3-dione] | 8.8% | 
7 | CCc1ccccc1N1C(=O)C2CCCN2C1=O (stereo not shown) [Compound 6, 2-(2-ethyl)phenyl-2,5,6,7,7a-pentahydro-2-azapyrrolizin-1,3-dione] |  | Ki [2]: > 5 µM
8 | O=C1C2CCCCN2C(=S)N1CCCc1ccccc1 (stereo not shown) [Compound 43, 2-(3-phenylpropyl)-3-thioxo-2,5,6,7,8,8a-hexahydro-2-azaindolizin-1-one] | 40.1% | 
9 | CCCCN1C(=O)C2CCCCN2C1=O (stereo not shown) [Compound 74, 2-butyl-2,5,6,7,8,8a-hexahydro-2-azaindolizine-1,3-dione] | 46.4% | 
10 | O=C1C2CCCCN2C(=S)N1Cc1ccccc1 (stereo not shown) [Compound 39, 2-benzyl-3-thioxo-2,5,6,7,8,8a-hexahydro-2-azaindolizin-1-one] | 11.2% | 
11 | O=C1[C@@H]2CCCN2C(=O)N1c1ccc(C(F)(F)F)cc1 [Compound 3, (7aS)-2-(4-(Trifluoromethyl)phenyl)perhydropyrrolo[1,2-c]imidazole-1,3-dione] | 78.8% | 
12 | O=C1C2CCCCN2C(=S)N1CCc1ccccc1 (stereo not shown) [Compound 40, 2-(2-phenylethyl)-3-thioxo-2,5,6,7,8,8a-hexahydro-2-azaindolizin-1-one] | 11% | 
13 | O=C1C2CCCCN2C(=O)N1Cc1ccccc1 (stereo not shown) [Compound 38, 2-Benzyl-2,5,6,7,8,8a-hexahydro-2-azaindolizine-1,3-dione] | 31.4% | 
14 | O=C1[C@@H]2CCCN2C(=O)N1c1ccccc1-c1ccccc1 [Compound 2, (7aS)-2-(2′-Phenyl)phenylperhydropyrrolo[1,2-c]imidazole-1,3-dione] |  | % Recovery of dopaminergic neurons ([1]; 10 mg/kg p.o. with MPTP (30 mg/kg i.p.) for 5 days plus 5 further days): 38.40%
15 | O=C1C2CCCCN2C(=O)N1c1ccccc1 (stereo not shown) [Compound 72, 2-phenyl-2,5,6,7,8,8a-hexahydro-2-azaindolizine-1,3-dione] | 37.2% | 
